{"source": "patent US20140221361A1", "about": "“C-19 MODIFIED TRITERPENOIDS WITH HIV MATURATION INHIBITORY ACTIVITY” (priority 2013, published 2014)", "test_system": "recombinant NL4-3 virus (Renilla luciferase in nef, Gag P373S)", "assay": "HIV cell culture assay (luciferase reporter, MT-2 cells)", "assay_type": "cell-based, HIV-1", "details": "luciferase activity, serial dilutions of inhibitor", "description": "MT-2 cells and 293T cells were obtained from the NIH AIDS Research and Reference Reagent Program. MT-2 cells were propagated in RPMI 1640 media supplemented with 10% heat inactivated fetal bovine serum, […]. The 293T cells were propagated in DMEM media supplemented with 10% heat inactivated fetal bovine serum (FBS), 100 units/ml penicillin G and 100 µg/ml streptomycin. The proviral DNA clone of NL4-3 was obtained from the NIH AIDS Research and Reference Reagent Program. A recombinant NL4-3 virus, in which a section of the nef gene from NL4-3 was replaced with the Renilla luciferase gene, was used as a reference virus. In addition, residue Gag P373 was converted to P373S. Briefly, the recombinant virus was prepared by transfection of the altered proviral clone of NL4-3. Transfections were performed in 293T cells using LipofectAMINE PLUS from Invitrogen (Carlsbad, Calif.), according to manufacturer's instruction. The virus was titered in MT-2 cells using luciferase enzyme activity as a marker. Luciferase was quantitated using the Dual Luciferase kit from Promega (Madison, Wis.), with modifications to the manufacturer's protocol. The diluted Passive Lysis solution was pre-mixed with the re-suspended Luciferase Assay Reagent and the re-suspended Stop & Glo Substrate (2:1:1 ratio). Fifty (50) μL of the mixture was added to each aspirated well on assay plates and luciferase activity was measured immediately on a Wallac TriLux (Perkin-Elmer). Antiviral activities of inhibitors toward the recombinant virus were quantified by measuring luciferase activity in cells infected for 4-5 days with NLRluc recombinants in the presence serial dilutions of the inhibitor.", "key": {"[1]": {"details": "Renilla, NL43, MT-2 cells infected for 4-5 days with NLRluc recombinants"}, "[2]": {"details": "MT-2 cells infected for 4-5 days with NLRluc recombinants"}}}
{"molecule": "CC(CC(=O)O)[C@@H]1CC[C@]2(C(=O)NCCN(C)C)CC[C@]3(C)[C@H](CC[C@@H]4[C@@]5(C)CC[C@H](c6ccc(C(=O)O)cc6)C(C)(C)[C@@H]5CC[C@]43C)[C@@H]12", "note": "(single isomer, unassigned) [Example 20]", "values": [{"measurement": "EC50", "setting": "[1]", "result": 30, "unit": "nM"}]}
{"molecule": "CC(CC(=O)O)[C@@H]1CC[C@]2(C(=O)NCCN(C)C)CC[C@]3(C)[C@H](CC[C@@H]4[C@@]5(C)CC[C@H](c6ccc(C(=O)O)cc6)C(C)(C)[C@@H]5CC[C@]43C)[C@@H]12", "note": "(single isomer, unassigned) [Example 21]", "values": [{"measurement": "EC50", "setting": "[2]", "result": 40, "unit": "nM"}]}
{"molecule": "CC(CO)[C@@H]1CC[C@]2(NCCN3CCS(=O)(=O)CC3)CC[C@]3(C)[C@H](CC[C@@H]4[C@@]5(C)CC=C(c6ccc(C(=O)O)c(F)c6)C(C)(C)[C@@H]5CC[C@]43C)[C@@H]12", "note": "(single isomer, unassigned) [Example A4]", "values": [{"measurement": "EC50", "setting": "[2]", "result": 2.34, "unit": "nM"}]}
{"molecule": "CC(CO)[C@@H]1CC[C@]2(NCCN3CCS(=O)(=O)CC3)CC[C@]3(C)[C@H](CC[C@@H]4[C@@]5(C)CC=C(c6ccc(C(=O)O)c(F)c6)C(C)(C)[C@@H]5CC[C@]43C)[C@@H]12", "note": "(single isomer, unassigned) [Example A5]", "values": [{"measurement": "EC50", "setting": "[2]", "result": 6.89, "unit": "nM"}]}
{"molecule": "COCC(C)(O)[C@@H]1CC[C@]2(NCCN3CCS(=O)(=O)CC3)CC[C@]3(C)[C@H](CC[C@@H]4[C@@]5(C)CC=C(c6ccc(C(=O)O)cc6)C(C)(C)[C@@H]5CC[C@]43C)[C@@H]12", "note": "(single isomer, unassigned) [Example B1]", "values": [{"measurement": "EC50", "setting": "[1]", "result": 1.19, "unit": "nM"}]}
{"molecule": "COCC(C)(OC)[C@@H]1CC[C@]2(NCCN3CCS(=O)(=O)CC3)CC[C@]3(C)[C@H](CC[C@@H]4[C@@]5(C)CC=C(c6ccc(C(=O)O)cc6)C(C)(C)[C@@H]5CC[C@]43C)[C@@H]12", "note": "(single isomer, unassigned) [Example B2]", "values": [{"measurement": "EC50", "setting": "[1]", "result": 1.05, "unit": "nM"}]}
{"molecule": "CC(CO)[C@@H]1CC[C@]2(NCCN3CCS(=O)(=O)CC3)CC[C@]3(C)[C@H](CC[C@@H]4[C@@]5(C)CC=C(c6ccc(C(=O)O)cc6)C(C)(C)[C@@H]5CC[C@]43C)[C@@H]12", "note": "(single isomer, unassigned) [Example B5]", "values": [{"measurement": "EC50", "setting": "[2]", "result": 1.15, "unit": "nM"}]}
{"molecule": "CC(CO)[C@@H]1CC[C@]2(NCCN3CCS(=O)(=O)CC3)CC[C@]3(C)[C@H](CC[C@@H]4[C@@]5(C)CC=C(c6ccc(C(=O)O)cc6)C(C)(C)[C@@H]5CC[C@]43C)[C@@H]12", "note": "(single isomer, unassigned) [Example B6]", "values": [{"measurement": "EC50", "setting": "[2]", "result": 3.75, "unit": "nM"}]}
{"molecule": "CC(CF)[C@@H]1CC[C@]2(NCCN3CCS(=O)(=O)CC3)CC[C@]3(C)[C@H](CC[C@@H]4[C@@]5(C)CC=C(c6ccc(C(=O)O)cc6)C(C)(C)[C@@H]5CC[C@]43C)[C@@H]12", "note": "(single isomer, unassigned) [Example B8]", "values": [{"measurement": "EC50", "setting": "[1]", "result": 2.51, "unit": "nM"}]}
{"molecule": "CC(O)(CO)[C@@H]1CC[C@]2(NCCN3CCS(=O)(=O)CC3)CC[C@]3(C)[C@H](CC[C@@H]4[C@@]5(C)CC=C(c6ccc(C(=O)O)cc6)C(C)(C)[C@@H]5CC[C@]43C)[C@@H]12", "note": "(single isomer, unassigned) [Example B9]", "values": [{"measurement": "EC50", "setting": "[2]", "result": 2.15, "unit": "nM"}]}
{"molecule": "CC(O)(CO)[C@@H]1CC[C@]2(NCCN3CCS(=O)(=O)CC3)CC[C@]3(C)[C@H](CC[C@@H]4[C@@]5(C)CC=C(c6ccc(C(=O)O)cc6)C(C)(C)[C@@H]5CC[C@]43C)[C@@H]12", "note": "(single isomer, unassigned) [Example B10]", "values": [{"measurement": "EC50", "setting": "[2]", "result": 6.67, "unit": "nM"}]}
{"molecule": "CC(O)[C@@H]1CC[C@]2(NCCN3CCS(=O)(=O)CC3)CC[C@]3(C)[C@H](CC[C@@H]4[C@@]5(C)CC=C(c6ccc(C(=O)O)cc6)C(C)(C)[C@@H]5CC[C@]43C)[C@@H]12", "note": "(single isomer, unassigned) [Example B11]", "values": [{"measurement": "EC50", "setting": "[1]", "result": 2.18, "unit": "nM"}]}
{"molecule": "CC(O)[C@@H]1CC[C@]2(NCCN3CCS(=O)(=O)CC3)CC[C@]3(C)[C@H](CC[C@@H]4[C@@]5(C)CC=C(c6ccc(C(=O)O)cc6)C(C)(C)[C@@H]5CC[C@]43C)[C@@H]12", "note": "(single isomer, unassigned) [Example B12]", "values": [{"measurement": "EC50", "setting": "[2]", "result": 3.95, "unit": "nM"}]}
